Test results reported in the supplement of paper PMC10307832.

Key:
Test in all cases: relative viability (nuclei count vs DMSO), 5 days (fraction); higher = more cells survive
Cediranib + Dasatinib = compound: COc1cc2c(Oc3ccc4[nH]c(C)cc4c3F)ncnc2cc1OCCCN1CCCC1 [Cediranib] + Cc1nc(Nc2ncc(C(=O)Nc3c(C)cccc3Cl)s2)cc(N2CCN(CCO)CC2)n1 [Dasatinib] (partner 0.075 µM)
Summary of the method: (§1)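 A single step with final 0.05% Triton X-100, 1% formaldehyde and 1 ug/ml Hoechst fixed the cells and stained nuclei 5 days after treatment. Lung cancer cell lines in 1536-well plates had been treated by pin tool the day after seeding with one drug alone or a fixed anchor-drug dose plus five library-drug doses (not always all listed) in √10 steps, and nuclei were counted on 4× images. Relative viability is the ratio of nuclei in treated wells to nuclei in vehicle wells, taken as the median of duplicate plates.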

[1] = compound: O=C(C[C@H]1NCCC[C@@H]1O)Cn1cnc2cc(Br)c(Cl)cc2c1=O (racemic) [Halofuginone] + CC(=O)c1c(C)c2cnc(Nc3ccc(N4CCNCC4)cn3)nc2n(C2CCCC2)c1=O [Palbociclib] (partner 0.5 µM)
Summary of the method: as §1

[2] = compound: O=C(C[C@H]1NCCC[C@@H]1O)Cn1cnc2cc(Br)c(Cl)cc2c1=O (racemic) [Halofuginone] + C[C@@H](Oc1cc(-c2cnn(C3CCNCC3)c2)cnc1N)c1c(Cl)ccc(F)c1Cl [Crizotinib] (partner 1 µM)
Summary of the method: as §1

Decitabine + Palbociclib = compound: Nc1ncn([C@H]2C[C@H](O)[C@@H](CO)O2)c(=O)n1 [Decitabine] + CC(=O)c1c(C)c2cnc(Nc3ccc(N4CCNCC4)cn3)nc2n(C2CCCC2)c1=O [Palbociclib] (partner 0.5 µM)
Summary of the method: as §1

Row | Cell Line | relative viability (Cediranib + Dasatinib; first compound 0.04 µM) | relative viability (Cediranib + Dasatinib; first compound 0.1265 µM) | relative viability (Cediranib + Dasatinib; first compound 0.4 µM) | relative viability (Cediranib + Dasatinib; first compound 1.265 µM) | relative viability (Cediranib + Dasatinib; first compound 4 µM) | relative viability ([1]; first compound 0.001 µM) | relative viability ([1]; first compound 0.003162 µM) | relative viability ([1]; first compound 0.01 µM) | relative viability ([1]; first compound 0.03162 µM) | relative viability ([1]; first compound 0.1 µM) | relative viability ([2]; first compound 0.001 µM) | relative viability ([2]; first compound 0.003162 µM) | relative viability ([2]; first compound 0.01 µM) | relative viability ([2]; first compound 0.03162 µM) | relative viability ([2]; first compound 0.1 µM) | relative viability (Decitabine + Palbociclib; first compound 0.04 µM) | relative viability (Decitabine + Palbociclib; first compound 0.1265 µM) | relative viability (Decitabine + Palbociclib; first compound 0.4 µM) | relative viability (Decitabine + Palbociclib; first compound 1.265 µM) | relative viability (Decitabine + Palbociclib; first compound 4 µM)
1 | NCI-H2023 | 0.594 | 0.623 | 0.567 | 0.537 | 0.668 | 0.406 | 0.361 | 0.374 | 0.138 | 0.0623 | 0.847 | 0.649 | 0.701 | 0.493 | 0.0689 | 0.329 | 0.36 | 0.287 | 0.23 | 0.157
2 | EBC-1 |  |  |  |  |  |  |  |  |  |  | 0.186 | 0.202 | 0.188 | 0.223 | 0.2 |  |  |  |  | 
3 | NCI-H1666 | 0.831 | 0.888 | 0.797 | 0.829 | 0.762 | 0.668 | 0.683 | 0.641 | 0.676 | 0.645 | 1.02 | 1.02 | 0.948 | 0.913 | 0.582 | 0.692 | 0.684 | 0.675 | 0.553 | 0.647
4 | NCI-H1975 | 0.361 | 0.35 | 0.337 | 0.356 | 0.352 | 0.66 | 0.547 | 0.553 | 0.42 | 0.157 | 1.12 | 0.91 | 1.01 | 0.628 | 0.184 | 0.395 | 0.46 | 0.285 | 0.231 | 0.301
5 | NCI-H2170 | 0.523 | 0.713 | 0.605 | 0.384 | 0.566 | 0.382 | 0.392 | 0.358 | 0.401 | 0.373 | 1.27 | 1.34 | 1.21 | 1.21 | 1 | 0.314 | 0.341 | 0.334 | 0.256 | 0.227
6 | NCI-H1355 | 0.686 | 0.745 | 0.658 | 0.655 | 0.747 | 0.414 | 0.435 | 0.368 | 0.413 | 0.38 | 1.04 | 1.04 | 1.08 | 1.08 | 0.921 | 0.374 | 0.345 | 0.329 | 0.275 | 0.277
7 | NCI-H1648 |  |  |  |  |  | 0.28 | 0.322 | 0.178 | 0.261 | 0.249 |  |  |  |  |  | 0.275 | 0.246 | 0.296 | 0.287 | 0.31
8 | A549 |  |  |  |  |  |  |  |  |  |  | 0.824 | 0.75 | 0.611 | 0.338 | 0.0443 |  |  |  |  | 
9 | SK-MES-1 | 0.37 | 0.47 | 0.413 | 0.427 | 0.252 | 0.341 | 0.33 | 0.323 | 0.257 | 0.186 | 1.02 | 1.01 | 0.863 | 0.778 | 0.302 | 0.315 | 0.304 | 0.303 | 0.277 | 0.319
10 | EKVX | 0.534 | 0.625 | 0.564 | 0.582 | 0.591 | 0.377 | 0.352 | 0.415 | 0.444 | 0.306 | 0.921 | 0.9 | 1.04 | 0.891 | 0.635 | 0.3 | 0.372 | 0.405 | 0.259 | 0.235
11 | RERF-LC-KJ | 0.823 | 0.695 | 0.842 | 0.834 | 0.838 | 1.18 | 0.973 | 1.12 | 1.03 | 0.811 | 0.888 | 0.791 | 0.807 | 0.818 | 0.823 | 1.02 | 1.02 | 0.404 | 0.633 | 0.636
12 | NCI-H1755 | 0.471 | 0.59 | 0.343 | 0.463 | 0.424 | 0.436 | 0.479 | 0.421 | 0.491 | 0.418 | 0.916 | 0.884 | 0.806 | 0.869 | 0.348 | 0.461 | 0.495 | 0.424 | 0.431 | 0.407
13 | NCI-H661 | 1.01 | 1.28 | 0.842 | 0.926 | 0.976 | 0.422 | 0.405 | 0.37 | 0.373 | 0.312 | 1.1 |  | 0.911 | 0.921 | 0.893 | 0.489 | 0.468 | 0.417 | 0.348 | 0.361
14 | LOU-NH91 | 0.522 | 0.78 | 0.51 | 0.495 | 0.552 | 0.567 | 0.515 | 0.494 | 0.492 | 0.589 | 0.782 | 0.718 | 0.714 | 0.964 | 0.688 | 0.514 | 0.592 | 0.588 | 0.507 | 0.415
15 | LXF-289 | 0.252 | 0.3 | 0.192 | 0.3 | 0.236 | 0.553 | 0.608 | 0.577 | 0.603 | 0.581 | 0.829 | 0.737 | 0.746 | 0.825 | 0.653 | 0.539 | 0.418 | 0.346 | 0.27 | 0.238
